Active and inactive are the calls of the source. No cut-off for these calls is given here.
The molecules below were run on MCF7 (assay: Antiproliferative activity against human MCF7 cells assessed as inhibition of cell growth incubated for 48 hrs by XTT assay). Settings: MCF7, 48 h.
Assay type: functional, cell-based

| SMILES | IC50 [µM] |
| --- | --- |
| COc1cc(-c2nnc(-c3c(C)[nH]c4c3Cc3ccccc3-4)[se]2)cc(OC)c1OC | > 10 |
| Cc1[nH]c2c(c1-c1nnc(-c3ccccc3)s1)Cc1ccccc1-2 | 0.555 |
| Cc1[nH]c2c(c1-c1nnc(-c3ccc(Cl)cc3)[se]1)Cc1ccccc1-2 | > 10 |
| Cc1[nH]c2c(c1-c1nnc(-c3ccc(Cl)cc3)s1)Cc1ccccc1-2 | > 10 |

Each molecule was assayed on HeLa (assay: Antiproliferative activity against human HeLa cells assessed as inhibition of cell growth incubated for 48 hrs by XTT assay). Settings: not given.
Assay type: functional, cell-based

| SMILES | IC50 [µM] |
| --- | --- |
| COc1cc(-c2nnc(-c3c(C)[nH]c4c3Cc3ccccc3-4)[se]2)cc(OC)c1OC | > 10 |
| Cc1[nH]c2c(c1-c1nnc(-c3ccccc3)s1)Cc1ccccc1-2 | 0.324 |
| Cc1[nH]c2c(c1-c1nnc(-c3ccc(Cl)cc3)[se]1)Cc1ccccc1-2 | > 10 |
| Cc1[nH]c2c(c1-c1nnc(-c3ccc(Cl)cc3)s1)Cc1ccccc1-2 | > 10 |

Each molecule was assayed on PC-3 (assay: Antiproliferative activity against human PC-3 cells assessed as inhibition of cell growth incubated for 48 hrs by XTT assay). Settings: PC-3, 48 h.
Assay type: functional, cell-based

| SMILES | IC50 [µM] |
| --- | --- |
| COc1cc(-c2nnc(-c3c(C)[nH]c4c3Cc3ccccc3-4)[se]2)cc(OC)c1OC | > 10 |
| Cc1[nH]c2c(c1-c1nnc(-c3ccccc3)s1)Cc1ccccc1-2 | 0.38 |
| Cc1[nH]c2c(c1-c1nnc(-c3ccc(Cl)cc3)[se]1)Cc1ccccc1-2 | > 10 |
| Cc1[nH]c2c(c1-c1nnc(-c3ccc(Cl)cc3)s1)Cc1ccccc1-2 | > 10 |

The molecules below were run on HFF-1 (assay: Cytotoxicity against HFF-1 cells assessed as reduction in cell viability at 1 to 2 uM incubated for 48 hrs by XTT assay). Settings: human, hff-1, 48 h, dose 1-2 µM.
Assay type: toxicity, cell-based

| SMILES | Activity |
| --- | --- |
| Cc1[nH]c2c(c1-c1nnc(-c3ccccc3)s1)Cc1ccccc1-2 | Non-Toxic |

Each molecule was assayed on NB1 (assay: Cytotoxicity against human NB1 cells immortalized with hTERT plasmid assessed as reduction in cell viability at 1 to 2 uM incubated for 48 hrs by XTT assay). Settings: nb1, 48 h, dose 1-2 µM.
Assay type: toxicity, cell-based

| SMILES | Activity |
| --- | --- |
| Cc1[nH]c2c(c1-c1nnc(-c3ccccc3)s1)Cc1ccccc1-2 | Non-Toxic |

These molecules were tested on HeLa (assay: Inhibition of colony formation in human HeLa cells at IC50 incubated for 2 weeks with culture medium replacement for every 3 days by crystal violet staining based analysis). Settings: not given.
Assay type: functional, cell-based

| SMILES | inhibition |
| --- | --- |
| Cc1[nH]c2c(c1-c1nnc(-c3ccccc3)s1)Cc1ccccc1-2 | Active |

These molecules were tested on PC-3 (assay: Inhibition of colony formation in human PC-3 cells at IC50 incubated for 2 weeks with culture medium replacement for every 3 days by crystal violet staining based analysis). Settings: not given.
Assay type: functional, cell-based

| SMILES | inhibition |
| --- | --- |
| Cc1[nH]c2c(c1-c1nnc(-c3ccccc3)s1)Cc1ccccc1-2 | Active |

What follows are molecules tested on HeLa (assay: Induction of cell cycle arrest in human HeLa cells assessed as accumulation of cells at G1 phase at 1 uM incubated for 6 hrs by FACS flow cytometry analysis (reference value: 69.94 +/- 1.71 %)). Settings: not given.
Assay type: functional

| SMILES | Activity [%] |
| --- | --- |
| Cc1[nH]c2c(c1-c1nnc(-c3ccccc3)s1)Cc1ccccc1-2 | 26.59 |

These molecules were tested on HeLa (assay: Induction of cell cycle arrest in human HeLa cells assessed as accumulation of cells at S phase at 1 uM incubated for 6 hrs by FACS flow cytometry analysis (reference value: 17.41 +/- 0.96 %)). Settings: not given.
Assay type: functional

| SMILES | Activity [%] |
| --- | --- |
| Cc1[nH]c2c(c1-c1nnc(-c3ccccc3)s1)Cc1ccccc1-2 | 40.38 |

These molecules were tested on HeLa (assay: Induction of cell cycle arrest in human HeLa cells assessed as accumulation of cells at G2/M phase at 1 uM incubated for 6 hrs by FACS flow cytometry analysis (reference value: 12.66 +/- 0.88 %)). Settings: not given.
Assay type: functional

| SMILES | Activity [%] |
| --- | --- |
| Cc1[nH]c2c(c1-c1nnc(-c3ccccc3)s1)Cc1ccccc1-2 | 33.03 |

What follows are molecules tested on HeLa (assay: Induction of cell cycle arrest in human HeLa cells assessed as accumulation of cells at G1 phase at 1 uM incubated for 18 hrs by FACS flow cytometry analysis (reference value: 69.94 +/- 1.25 %)). Settings: not given.
Assay type: functional

| SMILES | Activity [%] |
| --- | --- |
| Cc1[nH]c2c(c1-c1nnc(-c3ccccc3)s1)Cc1ccccc1-2 | 22.86 |

Each molecule was assayed on HeLa (assay: Induction of cell cycle arrest in human HeLa cells assessed as accumulation of cells at S phase at 1 uM incubated for 18 hrs by FACS flow cytometry analysis (reference value: 17.41 +/- 1.16 %)). Settings: not given.
Assay type: functional

| SMILES | Activity [%] |
| --- | --- |
| Cc1[nH]c2c(c1-c1nnc(-c3ccccc3)s1)Cc1ccccc1-2 | 20.62 |

These molecules were tested on HeLa (assay: Induction of cell cycle arrest in human HeLa cells assessed as accumulation of cells at G2/M phase at 1 uM incubated for 18 hrs by FACS flow cytometry analysis (reference value: 12.66 +/- 0.92 %)). Settings: not given.
Assay type: functional

| SMILES | Activity [%] |
| --- | --- |
| Cc1[nH]c2c(c1-c1nnc(-c3ccccc3)s1)Cc1ccccc1-2 | 56.51 |

The molecules below were run on PC-3 (assay: Induction of cell cycle arrest in human PC-3 cells assessed as accumulation of cells at G1 phase at 1 uM incubated for 6 hrs by FACS flow cytometry analysis (reference value: 44.2 +/- 2.21 %)). Settings: not given.
Assay type: functional

| SMILES | Activity [%] |
| --- | --- |
| Cc1[nH]c2c(c1-c1nnc(-c3ccccc3)s1)Cc1ccccc1-2 | 44.45 |

The molecules below were run on PC-3 (assay: Induction of cell cycle arrest in human PC-3 cells assessed as accumulation of cells at S phase at 1 uM incubated for 6 hrs by FACS flow cytometry analysis (reference value: 35.06 +/- 1.85 %)). Settings: not given.
Assay type: functional

| SMILES | Activity [%] |
| --- | --- |
| Cc1[nH]c2c(c1-c1nnc(-c3ccccc3)s1)Cc1ccccc1-2 | 21.51 |

These molecules were tested on PC-3 (assay: Induction of cell cycle arrest in human PC-3 cells assessed as accumulation of cells at G2/M phase at 1 uM incubated for 6 hrs by FACS flow cytometry analysis (reference value: 20.74 +/- 1.93 %)). Settings: not given.
Assay type: functional

| SMILES | Activity [%] |
| --- | --- |
| Cc1[nH]c2c(c1-c1nnc(-c3ccccc3)s1)Cc1ccccc1-2 | 34.04 |

Each molecule was assayed on PC-3 (assay: Induction of cell cycle arrest in human PC-3 cells assessed as accumulation of cells at G1 phase at 1 uM incubated for 12 hrs by FACS flow cytometry analysis (reference value: 44.2 +/- 2.01 %)). Settings: not given.
Assay type: functional

| SMILES | Activity [%] |
| --- | --- |
| Cc1[nH]c2c(c1-c1nnc(-c3ccccc3)s1)Cc1ccccc1-2 | 15.37 |

Each molecule was assayed on PC-3 (assay: Induction of cell cycle arrest in human PC-3 cells assessed as accumulation of cells at S phase at 1 uM incubated for 12 hrs by FACS flow cytometry analysis (reference value: 35.06 +/- 1.36 %)). Settings: not given.
Assay type: functional

| SMILES | Activity [%] |
| --- | --- |
| Cc1[nH]c2c(c1-c1nnc(-c3ccccc3)s1)Cc1ccccc1-2 | 23.79 |

What follows are molecules tested on PC-3 (assay: Induction of cell cycle arrest in human PC-3 cells assessed as accumulation of cells at G2/M phase at 1 uM incubated for 12 hrs by FACS flow cytometry analysis (reference value: 20.74 +/- 1.95 %)). Settings: not given.
Assay type: functional

| SMILES | Activity [%] |
| --- | --- |
| Cc1[nH]c2c(c1-c1nnc(-c3ccccc3)s1)Cc1ccccc1-2 | 60.84 |

These molecules were tested against T1, Tubulin (Homo sapiens) (UniProt P68371+Q9H4B7+P0DPH7+P68366+Q13509+Q71U36+P04350+Q3ZCM7+P07437+P68363+Q9BQE3+Q6PEY2+Q13885+Q9BVA1+Q9BUF5) (assay: Inhibition of tubulin polymerization in human HeLa cells assessed as irregular cell morphology at 0.5 uM incubated for 6 hrs by DAPI staining based fluorescence microscopic analysis). Settings: not given.

| SMILES | inhibition |
| --- | --- |
| Cc1[nH]c2c(c1-c1nnc(-c3ccccc3)s1)Cc1ccccc1-2 | Active |

Each molecule was assayed against T1, Tubulin (Homo sapiens) (assay: Inhibition of tubulin polymerization in human HeLa cells assessed as aberrations in mitotic spindle and nucleus at 0.5 uM incubated for 6 hrs by DAPI staining based fluorescence microscopic analysis). Settings: not given.
Assay type: cell-based

| SMILES | inhibition |
| --- | --- |
| Cc1[nH]c2c(c1-c1nnc(-c3ccccc3)s1)Cc1ccccc1-2 | Active |

What follows are molecules tested against T1, Tubulin (Homo sapiens) (assay: Inhibition of tubulin polymerization in human HeLa cells assessed as abnormal microtubule network at 0.5 uM incubated for 6 hrs by DAPI staining based fluorescence microscopic analysis). Settings: not given.
Assay type: cell-based

| SMILES | inhibition |
| --- | --- |
| Cc1[nH]c2c(c1-c1nnc(-c3ccccc3)s1)Cc1ccccc1-2 | Active |

The molecules below were run on HeLa (assay: Induction of apoptosis in human HeLa cells assessed as viable cells at 1 uM incubated for 24 hrs by Annexin V-FITC/7-AAD staining based flow cytometric analysis (reference value: 85.6 +/- 1.061%)). Settings: read-out: Activity.
Assay type: functional

| SMILES | viability at 1 µM [%] |
| --- | --- |
| Cc1[nH]c2c(c1-c1nnc(-c3ccccc3)s1)Cc1ccccc1-2 | 63.8 |

Each molecule was assayed on HeLa (assay: Induction of apoptosis in human HeLa cells assessed as early apoptotic cells at 1 uM incubated for 24 hrs by Annexin V-FITC/7-AAD staining based flow cytometric analysis (reference value: 2.7 +/- 0.424 %)). Settings: not given.
Assay type: functional

| SMILES | Activity [%] |
| --- | --- |
| Cc1[nH]c2c(c1-c1nnc(-c3ccccc3)s1)Cc1ccccc1-2 | 9.2 |

These molecules were tested on HeLa (assay: Induction of apoptosis in human HeLa cells assessed as late apoptotic cells at 1 uM incubated for 24 hrs by Annexin V-FITC/7-AAD staining based flow cytometric analysis (reference value: 11.1 +/- 0.778 %)). Settings: not given.
Assay type: functional

| SMILES | Activity [%] |
| --- | --- |
| Cc1[nH]c2c(c1-c1nnc(-c3ccccc3)s1)Cc1ccccc1-2 | 22.7 |

These molecules were tested on HeLa (assay: Induction of apoptosis in human HeLa cells assessed as dead cells at 1 uM incubated for 24 hrs by Annexin V-FITC/7-AAD staining based flow cytometric analysis (reference value: 0.6 +/- 0.707 %)). Settings: not given.
Assay type: functional

| SMILES | Activity [%] |
| --- | --- |
| Cc1[nH]c2c(c1-c1nnc(-c3ccccc3)s1)Cc1ccccc1-2 | 4.3 |

From ChEMBL document CHEMBL5113401, “Novel 1,3,4-oxadiazole chalcogen analogues: Synthesis and cytotoxic activity” (Eur J Med Chem, 2022)
